These are literature values, as cited in patent US8158770B2, “Content dependent inhibitors of cytidine deaminases and uses thereof” (University of Rochester, priority 2004, dated 2012).

SMILES strings stand for the structures.

For data set [1] the following is noted: by comparison to 5-aza-dC and ara-C.
The conditions of data set [2]: by comparison to 5-aza-dC and ara-C. The source holds these as a separate data set.

As for `O=c1ncccn1[C@@H]1O[C@H](CO)[C@@H](O)[C@H]1O` [zebularine, 1-(beta-D-ribofuranosyl)-1,2-dihydropyrmidin-2-one], the cytotoxicity result in data set [1] was “considerably less cytotoxic”. In addition, the “chemically stable in aqueous solution, up to pH” value in data set [2] is ≤ 12 pH.
